Measurements reported in patent US11771083B2, “Flower thinning composition and flower thinning method using same” (priority 2018, dated 2023).
Where two headings read alike, the source gives them in different places.

How the values were obtained:
honeybees [1] = assay: Acute contact toxicity to honeybees, active ingredients in acetone (Test Example 4); assay type: in vivo; details: for Lethality (%): 72 hours after treatment
Fuji apple variety [2] = assay: Flower-thinning effect of one alcohol species formulations (Test Example 1); assay type: in vivo; details: for Number of lateral fruits set: 20 days post-spraying; for Lateral flower-thinning rate (%) / Total flower-thinning rate (%): relative to untreated group; for Flower-thinning contribution rate in IAP-108: spray concentration 0.2%, effect × content (0.4 or 0.6)
Fuji apple variety [3] = details: in vivo; for Phytotoxicity: Fuji, apple
Procedure: Each of the chemical solutions was sprayed with a DIA (FURUPLA DIA SPRAY 570, Furupla Co., Ltd.) handy spray in both right and left directions in a sufficient amount to run along each flower cluster.
In this test, treatment (spraying) was performed when lateral flowers was in full bloom (Apr. 25, 2014), and phytotoxicity was assessed by visual scoring on day 4 after post-spraying (April 29) and day 11 after post-spraying (May 6). The flower-thinning effect was measured by recording the number of young fruits set without flower thinning on 20 days post-spraying (May 15). The flower thinning activity relative to that of the untreated group was presented as (1−number of young fruits in treated group/number of young fruits in untreated group)×100. This test was designed to have 8 replications with one flower cluster as one replication. Fertilization of the apple flowers was induced by natural fertilization.

honeybees [4] = details: active ingredient dissolved in acetone
Procedure: In the contact toxicity test for honeybees, healthy honeybees bred in an outdoor beekeeping system were acclimated in a breeding cage, and then anesthetized with CO2. […] This treatment was repeated 3 times for ten honeybees per test cage, and the honeybees were bred at 25° C. under dark conditions for 72 hours. The lethality of each aliphatic alcohol was measured.

peach leaves = details: 3-4% decyl alcohol; cited from earlier work
[5] = treatment dose 200 μg per honeybee in acetone

For `CCCCCCCCCC(=O)O` [1-decanoic acid, reference compound], the “Lethality (%)” value (honeybees [1]; [5]) was 90%.

For `CCCCCCO` [1-Hexanol, 1-hexanol], the “Number of central fruits set” value (Fuji apple variety [2]; concentration 0.2%) was 6, the “Total number of fruits set” value (Fuji apple variety [2]; concentration 0.2%) was 15 and the “Number of lateral fruits set” value (Fuji apple variety [2]; concentration 0.2%) was 9. For the same molecule, the “Lateral flower-thinning rate (%)” value (Fuji apple variety [2]; concentration 0.2%) was 53%, the “Total flower-thinning rate (%)” value (Fuji apple variety [2]; concentration 0.2%) was 40% and the “Number of central fruits set” value (Fuji apple variety [2]; concentration 1%) was 5. For the same molecule, the “Total number of fruits set” value (Fuji apple variety [2]; concentration 1%) was 10, the “Number of lateral fruits set” value (Fuji apple variety [2]; concentration 1%) was 5 and the “Lateral flower-thinning rate (%)” value (Fuji apple variety [2]; concentration 1%) was 74%. The “Total flower-thinning rate (%)” value (Fuji apple variety [2]; concentration 1%) was 60%, the “Lethality (%)” value (honeybees [1]; [5]) was 6.7% and the Phytotoxicity (Fuji apple variety [3]) was 0. For the same molecule, the “Lethality (%)” value (honeybees [4]; treatment dose 100 μg) was 3.3%.

For `CCCCCC(=O)O` [1-hexanoic acid, reference compound], the “Lethality (%)” value (honeybees [1]; [5]) was 30.0%.

In the case of `CCCCCCCCO` [1-Octanol, 1-octanol], the “Number of central fruits set” value (Fuji apple variety [2]; concentration 0.2%) is reported as 7, the “Total number of fruits set” value (Fuji apple variety [2]; concentration 0.2%) is reported as 13 and the “Number of lateral fruits set” value (Fuji apple variety [2]; concentration 0.2%) is reported as 6. The “Lateral flower-thinning rate (%)” value (Fuji apple variety [2]; concentration 0.2%) was 68%, the “Total flower-thinning rate (%)” value (Fuji apple variety [2]; concentration 0.2%) was 48% and the “Number of central fruits set” value (Fuji apple variety [2]; concentration 1%) was 3. The “Total number of fruits set” value (Fuji apple variety [2]; concentration 1%) was 4, the “Number of lateral fruits set” value (Fuji apple variety [2]; concentration 1%) was 1 and the “Lateral flower-thinning rate (%)” value (Fuji apple variety [2]; concentration 1%) was 95%. The “Total flower-thinning rate (%)” value (Fuji apple variety [2]; concentration 1%) was 84%, the “Efficacy (in words)” value (Fuji apple variety [2]; concentration of 1% (V/V)) was “sufficient efficacy” and the “Flower-thinning contribution rate in IAP-108” value (Fuji apple variety [2]) was 27.2%. For the same molecule, the “Lethality (%)” value (honeybees [1]; [5]) was 50% and the “Lethality (%)” value (honeybees [4]; treatment dose 100 μg) was 50%.

In the case of `CCCCCCCCCCO` [1-Decanol, 1-decanol], the “Number of central fruits set” value (Fuji apple variety [2]; concentration 0.01%) is reported as 6, the “Total number of fruits set” value (Fuji apple variety [2]; concentration 0.01%) is reported as 22 and the “Number of lateral fruits set” value (Fuji apple variety [2]; concentration 0.01%) is reported as 16. The “Lateral flower-thinning rate (%)” value (Fuji apple variety [2]; concentration 0.01%) was 16%, the “Total flower-thinning rate (%)” value (Fuji apple variety [2]; concentration 0.01%) was 12% and the “Number of central fruits set” value (Fuji apple variety [2]; concentration 0.05%) was 5. The “Total number of fruits set” value (Fuji apple variety [2]; concentration 0.05%) was 22, the “Number of lateral fruits set” value (Fuji apple variety [2]; concentration 0.05%) was 17 and the “Lateral flower-thinning rate (%)” value (Fuji apple variety [2]; concentration 0.05%) was 11%. The “Total flower-thinning rate (%)” value (Fuji apple variety [2]; concentration 0.05%) was 12%, the “Number of central fruits set” value (Fuji apple variety [2]; concentration 0.2%) was 5 and the “Total number of fruits set” value (Fuji apple variety [2]; concentration 0.2%) was 15. For the same molecule, the “Number of lateral fruits set” value (Fuji apple variety [2]; concentration 0.2%) was 10, the “Lateral flower-thinning rate (%)” value (Fuji apple variety [2]; concentration 0.2%) was 47% and the “Total flower-thinning rate (%)” value (Fuji apple variety [2]; concentration 0.2%) was 40%. The “Flower-thinning contribution rate in IAP-108” value (Fuji apple variety [2]) was 28.2%, the “Comparative contact toxicity to honeybees (in words)” value (honeybees [1]; among aliphatic alcohols and versus fatty acids of same carbon number) was “more toxic than 1-decanoic acid” and the “Comparative contact toxicity to honeybees (in words)” value (honeybees [1]; in vivo) was “highest lethality”. The “Lethality (%)” value (honeybees [1]; treatment dose 50 μg per honeybee in acetone) was 70%, the “Lethality (%)” value (honeybees [1]; [5]) was 100% and the Phytotoxicity (Fuji apple variety [3]) was 0. The “Phytotoxicity (in words)” value (Fuji apple variety [3]) was “no phytotoxicity”, the “Phytotoxicity to peach leaves” value (peach leaves) was “significant phytotoxicity” and the “Lethality (%)” value (honeybees [4]; treatment dose 50 μg) was 70%.

With `CCCCCCCC/C=C\CCCCCCCCO` [Oleyl alcohol, oleyl alcohol] the “Lateral flower-thinning rate (%)” value (Fuji apple variety [2]; concentration 0.1%) was 16% and the “Lethality (%)” value (honeybees [1]; [5]) was 20%.

In the case of `CCCCCCCC(=O)O` [1-octanoic acid, reference compound], the “Lethality (%)” value (honeybees [1]; [5]) is reported as 60%.
